Key:
[1] = tested on: PBMCs (T cell IFN-γ production); assay: PBMC ELISpot, CD3/CD28-stimulated IFN-γ production (Example 2); format: cell-based, human
Method: (§1) Fresh whole blood samples were processed within 90 min of collection as previously described (28). Briefly, blood was diluted in an equal volume of PBS and layered carefully on Ficoll Paque PLUS (GE Healthcare). The PBMC fraction was isolated following centrifugation at 500×g for 30 min at room temperature. The number of total PBMCs was determined with a Vi-CELL Viability Analyzer (Beckman Coulter, Brea, Calif.). Flow cytometry was performed on PBMC fraction for cell typing.
Innate and adaptive immune function was assessed using ELISpot analysis by measurement of the production of IFN-γ and TNF-α in ex vivo-stimulated cells following overnight culture. […] PBMCs were plated into wells in quantities of 2.5×10^4 cells per well for IFN-γ and 2.5×10^3 cells per well for TNF-α. […]
(§2) Samples were scanned, analyzed, and quality controlled for spot count, spot area, and TWI using a Cellular Technology series 6 ImmunoSpot Universal Analyzer with ImmunoSpot 7.0 professional software (Cellular Technology Analyzers, Shaker Heights, Ohio). […]
The number of cytokine-secreting cells present in each ELISpot well is referred to as spot-forming units (SFU) and is reported in two distinct ways. […] The number of lymphocytes in each well was determined based upon the absolute lymphocyte count as measured by the patients' complete blood count. […]

[2] = tested on: PBMCs (myeloid cell TNF-α production); assay: PBMC ELISpot, LPS-stimulated TNF-α production (Example 2); format: cell-based, human
Method: as §1
Innate and adaptive immune function was assessed using ELISpot analysis by measurement of the production of IFN-γ and TNF-α in ex vivo-stimulated cells following overnight culture. Capture Ab precoated 96-well polyvinylidene difluoride-backed strip plates were used for single color enzymatic assays (ImmunoSpot; Cellular Technology [CTL], Cleveland, Ohio) for detection of human IFN-γ and TNF-α. ELISpot culture procedure was followed as directed using instructions from the ELISpot kit. Samples were run in duplicate for each test condition. Plates were prepared with stimulant and were incubated at 37° C. and 5% CO2 for 30 min prior to plating cells. Identical conditions were prepared for comparison of whole blood assay to PBMC assay, and culture media alone was used as a negative control. Combination of 500 ng/ml of anti-CD3 (clone HIT3a; BioLegend) with 2.5 μg/ml of anti-CD28 (clone CD28.2; BioLegend) Abs were used to induce IFN-γ, and 2.5 ng/ml LPS (from Salmonella abortus equi S-form, ALX-581-009; Enzo Life Sciences, Farmingdale, N.Y.) was used to induce TNF-α wells. Total well volume for all samples was 200 μl. PBMCs were plated into wells in quantities of 2.5×10^4 cells per well for IFN-γ and 2.5×10^3 cells per well for TNF-α. […]
as §2
The number of cytokine-secreting cells present in each ELISpot well is referred to as spot-forming units (SFU) and is reported in two distinct ways. […] The number of lymphocytes in each well was determined based upon the absolute lymphocyte count as measured by the patients' complete blood count. For ELISpot studies involving PBMCs, flow cytometry was performed on the PBMC fraction, and the number of lymphocytes, monocytes, and residual neutrophils were determined. […] Samples were acquired on FACScan (Becton Dickenson, Franklin Lakes, N.J.) with a five-color modification (CyTek Biosciences, Fremont, Calif.) and analyzed using FlowJo 10.2 (FlowJo, Ashland, Oreg.) as previously described (28). […]

[3] = tested on: pSTAT5 in CD4 and CD8 T cells; assay: Mass cytometry (CyTOF) of intracellular phospho-STAT5 in T cells; format: in vivo, human
Excerpt: To measure the specific molecular effects underlying the increased T cell responsiveness induced by IL-7, we measured intracellular levels of phospho-STATS (pSTAT5) in CD4 and CD8 T cells using mass cytometry. STATS is the primary T cell differentiation signal downstream of the IL-7 receptor [12]. T cells were identified based on surface marker staining (CD45+/CD15−/CD66b−/CD56−/CD3+). We then measured the pSTAT5 signal intensity. IL-7 was associated with a 3-fold increase in activated STATS in CD4-T cells and a 2-fold increase in CD8-T cells (FIG. 28C).

[4] = tested on: lymphocytes in infected wound; assay: Anti-CD3 immunohistochemical staining of wound biopsies; format: in vivo, human; settings: after initiation of IL-7
Excerpt: A beneficial effect of IL-7 in infectious disorders is to increase expression of lymphocyte adhesion molecules and induce lymphocyte trafficking to sites of infection.

[5] = tested on: peripheral blood mononuclear cells (T cell IFN-γ production); format: cell-based, human
[6] = Serial plasma cytokines, ProcartaPlex 9-plex Luminex panel (Example 5); format: in vivo, human; settings: plasma of critically ill COVID-19 patient
SARS-CoV-2 = assay: COVID-19-specific antibody levels (Example 5); format: in vivo, human; settings: critically ill COVID-19 patient
[7] = tested on: PBMCs (T cell IFN-γ production); settings: critically ill COVID 19 disease patients, reference 18; cited from earlier work

Substance: IL-7: recombinant human IL-7, immunoadjuvant and potent T cell activator; R&D Systems ex vivo, RevImmune for patients
- effect of IL-7 on IFN-γ SFUs ([1]; PBMC, healthy subjects and CINS patients): significantly increased
- effect of IL-7 on T cell IFN-γ production ([1]; PBMCs, septic patients, p<0.0001): restore T cell IFN-γ production
- septic patients in whom IL-7 increased TNF-α production ([2]; PBMC ELISpot, patients out of total): 13/19
- change in TNF-α SFUs with IL-7 ([2]; PBMC, CINS): significant increase
- change in TNF-α SFUs with IL-7 ([2]; PBMCs, healthy subjects): no change
- overall increase in TNF-α SFUs with IL-7 ([2]; PBMCs, septic patients, p<0.01): 97%
- increase in activated STAT5 (pSTAT5 signal intensity) ([3]; CD4-T cells): 3 fold
- increase in activated STAT5 (pSTAT5 signal intensity) ([3]; CD8-T cells): 2 fold
- STAT5 expression in lymphocytes after initiation of IL-7 compared with pretreatment ([3]; CyTOF, geometric mean raw signal intensity): doubling
- number of CD3+ lymphocytes in biopsies from the infected wound [4]: marked increase
- T cell function on coincubation with both dexamethasone and IL-7 [5]: restored
- IFN-γ plasma concentration ([6]; Post IL-7, Day 12): Undetectable
- IL-1β plasma concentration ([6]; Post IL-7, Day 12): Undetectable
- IL-2 plasma concentration ([6]; Post IL-7, Day 12): Undetectable
- IL-6 plasma concentration ([6]; Post IL-7, Day 12): 30 pg/mL
- IL-10 plasma concentration ([6]; Post IL-7, Day 12): 2.71 pg/mL
- IL-12 plasma concentration ([6]; Post IL-7, Day 12): Undetectable
- IL-17 plasma concentration ([6]; Post IL-7, Day 12): 0.14 pg/mL
- Tumor necrosis factor-α plasma concentration ([6]; Post IL-7, Day 12): Undetectable
- IFN-γ plasma concentration ([6]; Post IL-7, Day 21): Undetectable
- IL-1β plasma concentration ([6]; Post IL-7, Day 21): Undetectable
- IL-2 plasma concentration ([6]; Post IL-7, Day 21): Undetectable
- IL-6 plasma concentration ([6]; Post IL-7, Day 21): 6 pg/mL
- IL-10 plasma concentration ([6]; Post IL-7, Day 21): 0.83 pg/mL
- IL-12 plasma concentration ([6]; Post IL-7, Day 21): Undetectable
- IL-17 plasma concentration ([6]; Post IL-7, Day 21): 0.12 pg/mL
- Tumor necrosis factor-α plasma concentration ([6]; Post IL-7, Day 21): Undetectable
- Coronavirus disease immunoglobulin G/M/A (SARS-CoV-2; Post IL-7, Day 12): High positive
- Coronavirus disease immunoglobulin G/M/A (SARS-CoV-2; Post IL-7, Day 21): High positive
- lymphocyte IFN-γ production on ex vivo addition of IL-7 to PBMCs [7]: doubled

— patent US20220091133A1, “METHODS AND ASSAYS FOR IMMUNE PHENOTYPING” (Washington University, priority 2020, published 2022)
